One test addresses T1, wild-type EGFR (Homo sapiens, UniProt P00533).
T1 construct: purchased Signalchem
The test can be described thus: Enzymology experiment in vitro (HTRF/FRET kinase activity), wild-type EGFR. As to conditions: HTRF KinEASE-TK, read-out: EGFR (WT) IC50. The test is classed as biochemical. In short, it runs like this: (§1)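 HTRF KinEASE-TK format: EGFR enzyme preincubated with compound 10 min at room temperature, then peptide substrate plus ATP added for 40 min. Detection with EDTA, XL665-streptavidin and Eu³⁺-labeled antibody for 1 h.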
(In general: Time-resolved FRET reads energy transfer from a long-lived donor to a nearby acceptor.)

The test system of test [1] is EGFR wild-type cell line A431. The test can be described thus: Cell proliferation inhibition experiment (CellTiter-Glo), A431. In kind it is cell-based. As to conditions: Homo sapiens, A-431, 72 h, A431 cells, Cell Titer-Glo, read-out: A431 EGFR WT IC50. In a few lines: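 A431 cells, 800 per well, were cultured 24 h and then exposed to serially diluted compound (0.1% DMSO final) for 72 h at 37° C., 5% CO2.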

Test [2] has as its target Ba/F3 L858R/T790M/C797S EGFR triple mutant cell line (Homo sapiens, UniProt P00533, T790M/C797S/L858R, cells depend on it). As to the kind of experiment: Cell proliferation inhibition experiment (CellTiter-Glo), Ba/F3 L858R/T790M/C797S. In kind it is cell-based. Particulars: 72 hours, Cell Titer-Glo, read-out: Ba/F3 (L858R/T790M/C797S) IC50. For orientation: Cellular ATP, detected with luciferase, serves as a proxy for viable cell number.

The target in test [3] is Ba/F3 De119/T790M/C797S EGFR triple mutant cell line (Homo sapiens, UniProt P00533, T790M/C797S, cells depend on it, form not given). As to the kind of experiment: Cell proliferation inhibition experiment (CellTiter-Glo), Ba/F3 De119/T790M/C797S. The test is classed as cell-based. Particulars: Ba/F3 Del19/T790M/C797S EGFR triple mutant cells, 72 hours, Cell Titer-Glo; read-out: Ba/F3 (Del19/T790M/C797S) IC50.

For test [4], the target named is T2, L858R/T790M/C797S triple mutant EGFR (Homo sapiens, UniProt P00533, C797S/L858R/T790M).
T2 construct: purchased Signalchem
As to the kind of experiment: Enzymology experiment in vitro (HTRF/FRET kinase activity), L858R/T790M/C797S triple mutant EGFR. In kind it is biochemical. Particulars: HTRF KinEASE-TK, read-out: EGFR (L858R/T790M/C797S) IC50. In short, it runs like this:
as §1

T1 sequence (P00533 25-1210): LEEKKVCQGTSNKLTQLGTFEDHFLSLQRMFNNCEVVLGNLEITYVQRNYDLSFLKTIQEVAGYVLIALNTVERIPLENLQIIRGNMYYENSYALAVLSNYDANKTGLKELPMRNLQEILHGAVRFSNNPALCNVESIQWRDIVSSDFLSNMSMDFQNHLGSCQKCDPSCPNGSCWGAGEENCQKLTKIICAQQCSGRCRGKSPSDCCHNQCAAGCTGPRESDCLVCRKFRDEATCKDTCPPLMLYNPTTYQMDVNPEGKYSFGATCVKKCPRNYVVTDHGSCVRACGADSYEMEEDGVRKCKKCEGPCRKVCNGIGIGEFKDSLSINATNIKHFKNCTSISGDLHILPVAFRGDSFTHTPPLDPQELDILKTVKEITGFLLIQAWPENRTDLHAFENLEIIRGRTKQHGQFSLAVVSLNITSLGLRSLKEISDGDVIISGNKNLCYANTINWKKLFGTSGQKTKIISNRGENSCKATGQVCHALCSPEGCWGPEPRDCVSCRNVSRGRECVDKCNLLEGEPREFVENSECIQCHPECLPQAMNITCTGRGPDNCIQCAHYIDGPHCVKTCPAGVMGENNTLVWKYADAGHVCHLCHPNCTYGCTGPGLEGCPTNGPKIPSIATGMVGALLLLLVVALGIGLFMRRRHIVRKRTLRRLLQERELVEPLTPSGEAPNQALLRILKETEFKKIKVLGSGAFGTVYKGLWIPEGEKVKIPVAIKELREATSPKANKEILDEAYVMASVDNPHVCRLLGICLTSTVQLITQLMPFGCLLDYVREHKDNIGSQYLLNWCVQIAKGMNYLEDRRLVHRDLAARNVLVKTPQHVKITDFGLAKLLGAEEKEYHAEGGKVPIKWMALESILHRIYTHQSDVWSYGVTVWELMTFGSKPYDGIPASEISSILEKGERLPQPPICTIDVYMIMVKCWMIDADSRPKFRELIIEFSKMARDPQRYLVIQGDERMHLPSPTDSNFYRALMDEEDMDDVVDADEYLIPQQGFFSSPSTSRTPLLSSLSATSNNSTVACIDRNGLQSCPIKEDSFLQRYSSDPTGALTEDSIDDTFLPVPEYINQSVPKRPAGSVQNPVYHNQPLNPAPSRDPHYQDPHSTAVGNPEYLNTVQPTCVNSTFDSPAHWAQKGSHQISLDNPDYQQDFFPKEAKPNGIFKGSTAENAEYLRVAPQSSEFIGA
Ba/F3 De119/T790M/C797S EGFR triple mutant cell line, sequence (P00533 with tags, fused parts or gaps DEL746-750/T790M/C797S, form open): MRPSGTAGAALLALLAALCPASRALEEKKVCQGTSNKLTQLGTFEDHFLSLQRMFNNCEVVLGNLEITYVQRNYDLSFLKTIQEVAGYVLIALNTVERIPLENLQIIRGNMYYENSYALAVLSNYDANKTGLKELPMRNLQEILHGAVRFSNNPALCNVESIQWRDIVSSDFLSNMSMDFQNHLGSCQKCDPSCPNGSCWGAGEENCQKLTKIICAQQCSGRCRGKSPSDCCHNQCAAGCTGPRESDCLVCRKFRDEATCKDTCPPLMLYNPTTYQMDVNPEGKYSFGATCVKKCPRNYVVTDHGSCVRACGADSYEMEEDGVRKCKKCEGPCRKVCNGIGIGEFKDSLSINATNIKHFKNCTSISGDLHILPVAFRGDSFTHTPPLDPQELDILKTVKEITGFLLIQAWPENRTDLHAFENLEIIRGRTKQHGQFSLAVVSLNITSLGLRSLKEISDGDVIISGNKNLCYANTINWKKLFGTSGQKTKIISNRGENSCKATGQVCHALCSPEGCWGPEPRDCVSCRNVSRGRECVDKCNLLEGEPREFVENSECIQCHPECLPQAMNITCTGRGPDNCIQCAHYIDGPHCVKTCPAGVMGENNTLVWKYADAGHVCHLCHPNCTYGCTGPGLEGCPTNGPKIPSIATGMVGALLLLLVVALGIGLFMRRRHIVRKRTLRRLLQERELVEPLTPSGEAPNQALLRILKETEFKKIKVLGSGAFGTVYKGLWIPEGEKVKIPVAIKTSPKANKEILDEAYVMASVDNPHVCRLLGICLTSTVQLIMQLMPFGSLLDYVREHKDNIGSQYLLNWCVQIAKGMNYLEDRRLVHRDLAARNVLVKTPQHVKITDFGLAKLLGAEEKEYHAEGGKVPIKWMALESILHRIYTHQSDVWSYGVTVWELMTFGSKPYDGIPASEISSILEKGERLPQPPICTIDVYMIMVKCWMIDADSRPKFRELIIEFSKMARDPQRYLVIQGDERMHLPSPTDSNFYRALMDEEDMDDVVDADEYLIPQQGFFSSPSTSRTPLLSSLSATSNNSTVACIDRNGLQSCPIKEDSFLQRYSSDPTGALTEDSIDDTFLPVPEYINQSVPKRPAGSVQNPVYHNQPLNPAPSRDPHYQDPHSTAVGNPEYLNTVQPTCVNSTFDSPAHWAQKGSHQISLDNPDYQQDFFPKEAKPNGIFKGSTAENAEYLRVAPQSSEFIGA
Ba/F3 L858R/T790M/C797S EGFR triple mutant cell line, sequence (P00533 whole entry T790M/C797S/L858R): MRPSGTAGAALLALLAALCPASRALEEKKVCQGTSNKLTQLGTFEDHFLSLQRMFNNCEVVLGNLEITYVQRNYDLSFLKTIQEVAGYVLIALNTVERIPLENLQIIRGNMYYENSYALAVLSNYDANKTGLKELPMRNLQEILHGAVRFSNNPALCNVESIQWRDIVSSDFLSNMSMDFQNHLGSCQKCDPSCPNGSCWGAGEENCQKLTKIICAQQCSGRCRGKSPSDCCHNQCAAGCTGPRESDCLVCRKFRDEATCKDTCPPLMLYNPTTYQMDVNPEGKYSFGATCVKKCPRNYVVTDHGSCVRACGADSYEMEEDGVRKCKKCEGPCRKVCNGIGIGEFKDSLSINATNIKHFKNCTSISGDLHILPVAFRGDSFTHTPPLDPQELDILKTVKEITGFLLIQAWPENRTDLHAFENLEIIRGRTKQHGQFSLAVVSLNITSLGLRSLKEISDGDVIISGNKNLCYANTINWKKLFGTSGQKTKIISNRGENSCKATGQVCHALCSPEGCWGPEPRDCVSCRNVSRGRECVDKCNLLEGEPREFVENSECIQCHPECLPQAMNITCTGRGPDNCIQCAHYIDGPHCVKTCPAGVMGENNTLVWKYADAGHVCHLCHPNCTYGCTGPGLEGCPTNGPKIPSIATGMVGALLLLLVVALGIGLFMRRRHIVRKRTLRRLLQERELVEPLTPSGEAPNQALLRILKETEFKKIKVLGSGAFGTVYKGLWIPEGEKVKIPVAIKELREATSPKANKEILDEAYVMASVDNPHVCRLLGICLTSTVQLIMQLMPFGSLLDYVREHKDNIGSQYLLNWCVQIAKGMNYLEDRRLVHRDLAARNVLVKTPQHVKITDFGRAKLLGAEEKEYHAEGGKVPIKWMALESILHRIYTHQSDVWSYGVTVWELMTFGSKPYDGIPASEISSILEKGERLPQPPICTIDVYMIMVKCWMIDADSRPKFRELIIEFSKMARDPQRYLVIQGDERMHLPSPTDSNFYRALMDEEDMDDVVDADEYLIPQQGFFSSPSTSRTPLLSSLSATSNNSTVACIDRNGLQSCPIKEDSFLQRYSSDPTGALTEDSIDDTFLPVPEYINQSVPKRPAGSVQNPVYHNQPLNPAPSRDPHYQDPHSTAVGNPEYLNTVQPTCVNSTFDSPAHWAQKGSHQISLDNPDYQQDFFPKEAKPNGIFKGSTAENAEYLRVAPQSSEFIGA
T2 sequence (P00533 25-1210 T790M/C797S/L858R): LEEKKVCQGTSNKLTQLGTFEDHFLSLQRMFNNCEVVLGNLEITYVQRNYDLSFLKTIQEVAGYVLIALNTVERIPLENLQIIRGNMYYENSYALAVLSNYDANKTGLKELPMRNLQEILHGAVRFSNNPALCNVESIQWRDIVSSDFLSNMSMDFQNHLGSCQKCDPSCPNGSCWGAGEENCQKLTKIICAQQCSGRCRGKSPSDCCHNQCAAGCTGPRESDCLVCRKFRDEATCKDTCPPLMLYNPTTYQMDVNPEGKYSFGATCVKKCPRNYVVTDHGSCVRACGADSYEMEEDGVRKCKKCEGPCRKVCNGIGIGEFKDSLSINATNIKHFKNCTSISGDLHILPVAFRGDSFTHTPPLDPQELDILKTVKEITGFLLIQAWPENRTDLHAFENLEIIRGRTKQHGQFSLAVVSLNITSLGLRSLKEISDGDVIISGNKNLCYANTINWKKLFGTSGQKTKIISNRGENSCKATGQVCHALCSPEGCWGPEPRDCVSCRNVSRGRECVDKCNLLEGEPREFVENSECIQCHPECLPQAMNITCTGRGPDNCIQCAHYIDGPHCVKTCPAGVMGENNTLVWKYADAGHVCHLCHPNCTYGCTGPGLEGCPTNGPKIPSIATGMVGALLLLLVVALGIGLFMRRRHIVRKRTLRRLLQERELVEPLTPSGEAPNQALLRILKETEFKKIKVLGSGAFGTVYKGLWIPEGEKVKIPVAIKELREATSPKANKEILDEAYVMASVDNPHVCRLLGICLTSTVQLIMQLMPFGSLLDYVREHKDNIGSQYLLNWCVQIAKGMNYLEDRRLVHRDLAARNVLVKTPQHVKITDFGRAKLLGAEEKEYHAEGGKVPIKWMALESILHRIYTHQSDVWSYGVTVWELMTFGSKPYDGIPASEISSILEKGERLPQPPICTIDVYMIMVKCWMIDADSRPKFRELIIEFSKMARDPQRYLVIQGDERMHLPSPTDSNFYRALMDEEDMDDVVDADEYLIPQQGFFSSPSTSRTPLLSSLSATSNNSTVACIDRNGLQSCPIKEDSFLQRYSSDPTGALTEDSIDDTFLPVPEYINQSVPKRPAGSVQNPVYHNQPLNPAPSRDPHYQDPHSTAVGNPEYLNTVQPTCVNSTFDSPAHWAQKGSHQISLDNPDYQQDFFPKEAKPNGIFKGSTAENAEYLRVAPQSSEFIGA

As to `COc1c(Nc2ncc(Br)c(Nc3ccc4nccnc4c3P(C)(C)=O)n2)cc(-c2cnn(C)c2)c(N2CCC(N3CCN(C)CC3)CC2)c1F` [compound 93], the IC50 on wild-type EGFR was determined as 23.1 nM; in test [1], 178 nM; in test [4], 0.18 nM. Besides, the GI50 in test [2] worked out at 27 nM; in test [3] it was 12.5 nM.
For `COc1cc(N2CCS(=O)(=O)CC2)c(-c2cnn(C)c2)cc1Nc1ncc(Br)c(Nc2ccc3nccnc3c2P(C)(C)=O)n1` [compound 94] the same measures were 2.78 nM, 168 nM, 0.15 nM, 28.8 nM and 6.99 nM.
On the same counts, the results for `COc1cc(N2CCOCC2)c(-c2cn[nH]c2)cc1Nc1ncc(C)c(Nc2ccc3nccnc3c2P(C)(C)=O)n1` [compound 97] are 1.02 nM, 406 nM, 0.15 nM, 25.5 nM and 6.64 nM.
In the case of `COc1cc(N2CCC(N3CCN(C)CC3)CC2)c(-c2cscn2)cc1Nc1ncc(Br)c(Nc2ccc3nccnc3c2P(C)(C)=O)n1` [compound 98], the IC50 was 16.2 nM on wild-type EGFR, 177 nM in test [1] and 0.82 nM in test [4]. Further, the GI50 in test [2] is 27.8 nM; in test [3], 11 nM.
On the same counts, the results for `COc1cc(N2CCC3(CCN(C)CC3)CC2)c(-c2cnn(C)c2)cc1Nc1ncc(Br)c(Nc2ccc3nccnc3c2P(C)(C)=O)n1` [compound 101] are 0.41 nM, 46.1 nM, 0.18 nM, 4.53 nM and 2.87 nM.
For `COc1cc(N2CCN(C3CC3)CC2)c(-c2cnn(C)c2)cc1Nc1ncc(Br)c(Nc2ccc3nccnc3c2P(C)(C)=O)n1` [compound 102] the same measures were 1.49 nM, 108 nM, 0.23 nM, 2.02 nM and 0.76 nM.
For `COc1cc(N2CCN(CCF)CC2)c(-c2cnn(C)c2)cc1Nc1ncc(Br)c(Nc2ccc3nccnc3c2P(C)(C)=O)n1` [compound 103], the IC50 at wild-type EGFR is 1.57 nM; in test [1], 152 nM; in test [4] it was 0.13 nM. For the same molecule, the GI50 was 5.02 nM in test [2] and 0.51 nM in test [3].
On the same counts, the results for `COc1cc(N2CCOC[C@H]2C)c(-c2cnn(C)c2)cc1Nc1ncc(Br)c(Nc2ccc3nccnc3c2P(C)(C)=O)n1` [compound 104] are 27.2 nM, 192 nM, 0.95 nM, 17.7 nM and 4.07 nM.
As for `COc1cc(N2CCNC(=O)C2)c(-c2cnn(C)c2)cc1Nc1ncc(Br)c(Nc2ccc3nccnc3c2P(C)(C)=O)n1` [compound 105], the values for the IC50 (on wild-type EGFR; in test [1]; in test [4]) were 5.62 nM, 1190 nM and 0.16 nM, respectively. The values for the GI50 in test [2] and in test [3] were 61.9 nM and 20.9 nM, respectively.
On the same counts, the results for `COc1cc(N2C[C@@H]3C[C@H]2CO3)c(-c2cnn(C)c2)cc1Nc1ncc(Br)c(Nc2ccc3nccnc3c2P(C)(C)=O)n1` [compound 107] are 26.4 nM, 380 nM, 1.3 nM, 30.9 nM and 11.2 nM.
On the same counts, the results for `COc1cc(N2CCN(S(C)(=O)=O)CC2)c(-c2cnn(C)c2)cc1Nc1ncc(Br)c(Nc2ccc3nccnc3c2P(C)(C)=O)n1` [compound 110] are 1.54 nM, 162 nM, 0.57 nM, 10.9 nM and 3.7 nM.
With `COc1cc(N2C[C@@H](C)O[C@@H](C)C2)c(-c2cnn(C)c2)cc1Nc1ncc(Br)c(Nc2ccc3nccnc3c2P(C)(C)=O)n1` [compound 111], the IC50 at wild-type EGFR worked out at 5.65 nM; in test [1], 210 nM; in test [4], 1.38 nM. The GI50 amounted to 4.79 nM in test [2] and 3.22 nM in test [3].
On the same counts, the results for `COc1cc(N2CCN(C(N)=O)CC2)c(-c2cnn(C)c2)cc1Nc1ncc(Br)c(Nc2ccc3nccnc3c2P(C)(C)=O)n1` [compound 112] are 0.92 nM, 1100 nM, 0.26 nM, 161 nM and 57 nM.
`COc1cc(N2C[C@H]3C[C@@H]2CO3)c(-c2cnn(C)c2)cc1Nc1ncc(Br)c(Nc2ccc3nccnc3c2P(C)(C)=O)n1` [compound 114]: the IC50 at wild-type EGFR is 5.41 nM; in test [1], 271 nM; in test [4], 0.56 nM. The GI50 in test [2] worked out at 11.2 nM; in test [3], 5.86 nM.
For `COc1cc(N2CCOC(CO)C2)c(-c2cnn(C)c2)cc1Nc1ncc(Br)c(Nc2ccc3nccnc3c2P(C)(C)=O)n1` (stereo not drawn) [compound 115] the same measures were 1.65 nM, 159 nM, 0.4 nM, 16.1 nM and 6.53 nM.
For `COc1cc(N2CCN(C(=O)C3CC3)CC2)c(-c2cnn(C)c2)cc1Nc1ncc(Br)c(Nc2ccc3nccnc3c2P(C)(C)=O)n1` [compound 116] the same measures were 3.13 nM, 169 nM, 1.31 nM, 8.15 nM and 2.25 nM.
For `COc1cc(N2CCC(N3CCN(C)CC3)CC2)c(-c2cnn(C)c2)cc1Nc1ncc(F)c(Nc2ccc3nccnc3c2P(C)(C)=O)n1` [compound 119] the same measures were 4.07 nM, 639 nM, 1.3 nM, 239 nM and 36.6 nM.
`COc1cc(N2CCOC(C)(C)C2)c(-c2cnn(C)c2)cc1Nc1ncc(Br)c(Nc2ccc3nccnc3c2P(C)(C)=O)n1` [compound 120]: the IC50 at wild-type EGFR came to 9.84 nM; in test [1], 197 nM; in test [4], 1.17 nM. Further, the GI50 in test [2] worked out at 8.67 nM; in test [3], 2.62 nM.
On the same counts, the results for `COc1cc(N2CCC(O)CC2)c(-c2cnn(C)c2)cc1Nc1ncc(Br)c(Nc2ccc3nccnc3c2P(C)(C)=O)n1` [compound 121, (6-((5-bromo-2-((4-(4-hydroxypiperidin-1-yl)-2-methoxy-5-(1-methyl-1H-pyrazol-4-yl)phenyl)amino]pyrimidin-4-yl)amino)quinoxalin-5-yl)dimethylphosphine oxide] are 0.67 nM, 150 nM, 0.25 nM, 6.16 nM and 1.61 nM.
For `CN(C)CCN1CCOc2c(Nc3ncc(Br)c(Nc4ccc5nccnc5c4P(C)(C)=O)n3)cc(-c3cnn(C)c3)cc21` [compound 122] the same measures were 3.42 nM, 37.2 nM, 0.62 nM, 9.96 nM and 2.07 nM.
For `Cn1cc(-c2cc(Nc3ncc(Br)c(Nc4ccccc4P(C)(C)=O)n3)c(OCC(F)(F)F)nc2N2CCOCC2)cn1` [compound 123] the same measures were 121 nM, 8840 nM, 1.12 nM, 82 nM and 24.3 nM.

Source of the values: patent US20230219986A1, “NOVEL AMINOPYRIMIDINE EGFR INHIBITOR” (QILU PHARMACEUTICAL CO., LTD., priority 2020, published 2023).
